This is an account of results in publication PMC12153776, “Synthesis and Preliminary Cytotoxicity Evaluation of 3-Lup-20(29)-Ene-3β,28-Diol Glycoconjugates Containing a Succinic Linker and a 1,2,3-Triazole Ring” (Cancers, 2025).

One data set concerns healthy cells. Also on record: method as in PMID 33353244. The following applies: previous study; cited from earlier work.
A further data set deals with MCF-7 cell line. More on the design: method as in PMID 33353244. The following applies: previous study; cited from earlier work.
Data set [1] has as its system MCF-7 (human breast adenocarcinoma cell line). In words: MTT cytotoxicity assay, MCF-7 cells. The note with it: for IC50: Homo sapiens, MCF7, 72 h, MTT, incubation 72 h. Format: cell-based. As to the method: (§1) For biological studies three different cell lines were used: the NHDF-Neo cell line (Lonza, Poland), the HCT-116 cell line (American Type Culture Collection, ATCC, Manassas, VA, USA), and the MCF-7 cell line (purchased by the Maria Sklodowska-Curie Memorial Cancer Center and Institute of Oncology, Gliwice, Poland and gifted for our research). Cells were cultured in 96-well plates (Sarstedt, Nümbrecht, Germany) using RPMI 1640 or DMEM/F12 media (100 µL per well) supplemented with fetal bovine serum (FBS, EURx, Gdańsk, Poland), and with Antibiotic–Antimycotic Solution (Avantor, Gliwice, Poland). Cells were seeded and incubated for 24 h prior to treatment: […] Stock solutions of the tested compounds were prepared in DMSO and stored under appropriate conditions. Immediately prior to the experiment, these solutions were diluted to the desired concentrations using a growth medium. In no dilution was the DMSO content higher than 1% v/v. The resulting solutions were then used to treat cells (100 µL per well). […] In parallel, the influence of copper ions on cellular proliferation was investigated. In this case, the procedure was analogous to the previously described one, with the difference that glycoconjugates were added in the culture medium with the addition of CuCl2. […] ACROS Organics) was applied following the manufacturer’s protocol. Absorbance of the formazan, formed during the test and dissolved in 100 µL of DMSO, was measured spectrophotometrically at 570 nm using a plate reader (Epoch, Bio-Tek, Winooski, VT, USA). The measured absorbance was analyzed to assess proliferation, where tested samples were compared with the untreated controls (100%). The results from MTT were presented as the mean of three experiments (biological replicates). For each experimental condition within a replicate, four technical repetitions were performed. Technical repetitions were averaged to obtain a single value per replicate. Statistical analyses were conducted using means of the biological replicates. The percentage of viable cells and the standard deviation (SD) were calculated in Excel (Microsoft Office 365, A3 for faculty), using the STDEV.S formula, which determines the standard deviation for a sample set. […] The results are expressed as the average value ± standard deviation (SD). To evaluate statistical significance, two-way analysis of variance (ANOVA) with replication was performed to assess the effects of compound type and concentration on cell proliferation. When significant main effects were observed (p < 0.05), pairwise comparisons between betulin (BN) and each analogue at corresponding concentrations were conducted using two-tailed unpaired t-tests. […] All statistical tests were performed in Excel. […] Two cancer cell lines were chosen for the study: HCT 116 (colorectal carcinoma cell line) and MCF-7 (human breast adenocarcinoma cell line). This selection was not random, as in both types of cancer cell lines overexpression of glucose and galactose transporters is observed. To determine if glycoconjugation enhanced the selectivity of the betulin derivatives, cytotoxicity tests on Normal Human Dermal Fibroblast-Neonatal cells (NHDF-Neo) were also conducted. The selection of this healthy cell line, so atypical in relation to the cancer cells tested, was based on the desire to compare the selectivity index determined for the currently obtained glycoconjugates with the results obtained for the betulin derivatives we described earlier and draw preliminary conclusions on structure-selectivity relationships. […] The incubation time for individual cell lines varied from 24 to 72 h, due to differences in the doubling time of these cell lines.

The subject of data set [2] is Normal Human Dermal Fibroblast-Neonatal cells (NHDF-Neo). Description: MTT cytotoxicity assay, healthy NHDF-Neo cells. The class given is cell-based. The note with it: 24 h, incubation 24 h. As to the method: as §1, with “Poland).” for “Poland). Cells were seeded and incubated for 24 h prior to treatment:”, “proliferation.” for “proliferation. When significant main effects were observed (p < 0.05), pairwise comparisons between betulin (BN) and each analogue at corresponding concentrations were conducted using two-tailed unpaired t-tests.”, “conducted.” for “conducted. The selection of this healthy cell line, so atypical in relation to the cancer cells tested, was based on the desire to compare the selectivity index determined for the currently obtained glycoconjugates with the results obtained for the betulin derivatives we described earlier and draw preliminary conclusions on structure-selectivity relationships.”
A general note: Tetrazolium dyes change colour on reduction, which living cells bring about.

Data set [3] concerns HCT 116 (colorectal carcinoma cell line). In words: cells. The note with it: for IC50: Homo sapiens, MTT. Format: cell-based, human. As to the method: as §1, with “Poland).” for “Poland). Cells were seeded and incubated for 24 h prior to treatment:”, “proliferation.” for “proliferation. When significant main effects were observed (p < 0.05), pairwise comparisons between betulin (BN) and each analogue at corresponding concentrations were conducted using two-tailed unpaired t-tests.”, “conducted.” for “conducted. The selection of this healthy cell line, so atypical in relation to the cancer cells tested, was based on the desire to compare the selectivity index determined for the currently obtained glycoconjugates with the results obtained for the betulin derivatives we described earlier and draw preliminary conclusions on structure-selectivity relationships.”

Setting [4] is: HCT-116, 24 h, incubation 24 h, no copper added.
[5] abbreviates: HCT-116, 48 h, incubation 48 h, addition of CuCl2 at 20 µM.
[6] abbreviates: HCT-116, 48 h, incubation 48 h, no copper added.

A value given as a limit tells only on which side of the number the result lay.

For the compound `C=C(C)C1CCC2(COC(=O)Cn3cc(CO)nn3)CCC3(C)C(CCC4C5(C)CCC(OC(=O)Cn6cc(CO)nn6)C(C)(C)C5CCC43C)C12` (centres unmarked) [3,28-O,O’-bis(2-(4-(hydroxymethyl-1H-1,2,3-triazol-1-yl)acetyl)betulin], the “toxicity against healthy cells” value with healthy cells is listed as “showed toxicity against healthy cells”. Further, the “in vitro activity against the MCF-7 cell line” value with MCF-7 cell line is listed as “unexpectedly high in vitro activity”.
For `C=C(C)[C@@H]1CC[C@]2(COC(=O)CCC(=O)OCc3cn(CCCO[C@@H]4O[C@H](COC(C)=O)[C@@H](OC(C)=O)[C@H](OC(C)=O)[C@H]4OC(C)=O)nn3)CC[C@]3(C)C(CCC4[C@@]5(C)CC[C@H](O)C(C)(C)C5CC[C@]43C)C12` (some centres unmarked) [7d], the IC50 (in general, the midpoint of a concentration-inhibition curve) is 147 ± 2.32 µM in data set [1] (addition of CuCl2 at 20 µM); 165 ± 8.32 µM in data set [1] (no copper added); above 200 µM in data set [2] (addition of CuCl2 at 20 µM); above 200 µM in data set [2] (no copper added); above 200 µM in data set [3] (setting [4]); 60.4 ± 6.95 µM in data set [3] (setting [5]). Besides, in data set [3] (setting [6]), the IC50 is 131 ± 8.76 µM. Also, the “SI MCF-7 (ratio of IC50 of NHDF-Neo to IC50 of cancer cells)” value is on record as above 1.4 in data set [1] (addition of CuCl2 at 20 µM) and above 1.2 in data set [1] (no copper added). Besides, the “SI HCT 116 (ratio of IC50 of NHDF-Neo to IC50 of cancer cells)” value in data set [3] (no copper added) is above 1.5.
Take `C=C(C)[C@@H]1CC[C@]2(COC(=O)CCC(=O)OCc3cn(C[C@H]4O[C@@H](OC(C)=O)[C@H](OC(C)=O)[C@@H](OC(C)=O)[C@H]4OC(C)=O)nn3)CC[C@]3(C)C(CCC4[C@@]5(C)CC[C@H](OC(C)=O)C(C)(C)C5CC[C@]43C)C12` (some centres unmarked) [8a]: the IC50 in data set [1] (addition of CuCl2 at 20 µM) is 88.3 ± 3.31 µM; in data set [1] (no copper added), 153 ± 1.98 µM; in data set [2] (addition of CuCl2 at 20 µM), above 200 µM; in data set [2] (no copper added), above 200 µM; in data set [3] (setting [4]), above 200 µM; in data set [3] (setting [5]) it was above 200 µM. The compound further came in with an IC50 in data set [3] (setting [6]) above 200 µM. Also, the “SI MCF-7 (ratio of IC50 of NHDF-Neo to IC50 of cancer cells)” value is on record as above 2.3 in data set [1] (addition of CuCl2 at 20 µM) and above 1.3 in data set [1] (no copper added).
On to `C=C(C)[C@@H]1CC[C@]2(COC(=O)CCC(=O)OCc3cn(CCO)nn3)CC[C@]3(C)C(CCC4[C@@]5(C)CC[C@H](OC(C)=O)C(C)(C)C5CC[C@]43C)C12` (some centres unmarked) [9a], for which the IC50 in data set [1] (addition of CuCl2 at 20 µM) is 139 ± 6.21 µM; in data set [1] (no copper added), 148 ± 8.71 µM; in data set [2] (addition of CuCl2 at 20 µM), above 200 µM; in data set [2] (no copper added) it was above 200 µM; in data set [3] (HCT-116, 24 h, incubation 24 h, addition of CuCl2 at 20 µM) it was above 200 µM; in data set [3] (setting [4]) it was above 200 µM. Further, the IC50 in data set [3] (setting [5]) and in data set [3] (setting [6]) was above 200 µM in each case. For the same compound, the “SI MCF-7 (ratio of IC50 of NHDF-Neo to IC50 of cancer cells)” value in data set [1] (no copper added) was above 1.4.
Take `C=C(C)[C@@H]1CC[C@]2(CO)CC[C@]3(C)[C@H](CC[C@@H]4[C@@]5(C)CC[C@H](O)C(C)(C)[C@@H]5CC[C@]43C)[C@@H]12` [BN, 3-Lup-20(29)-ene-3β,28-diol]: the IC50 is 13.9 ± 2.35 µM in data set [1] (addition of CuCl2 at 20 µM); 17.9 ± 1.06 µM in data set [1] (no copper added); 33.3 ± 5.97 µM in data set [2] (addition of CuCl2 at 20 µM); 34.9 ± 8.36 µM in data set [2] (no copper added); 34.9 ± 4.26 µM in data set [3] (setting [4]); 20.8 ± 2.71 µM in data set [3] (setting [5]). In data set [3] (setting [6]), this compound registered an IC50 of 26 ± 5.4 µM. Moreover, the “SI MCF-7 (ratio of IC50 of NHDF-Neo to IC50 of cancer cells)” value in data set [1] (addition of CuCl2 at 20 µM) is on record as 2.4; in data set [1] (no copper added) it was 1.9. The “SI HCT 116 (ratio of IC50 of NHDF-Neo to IC50 of cancer cells)” value in data set [3] (addition of CuCl2 at 20 µM) stood at 1.6; in data set [3] (no copper added), 1.3.
